Data published in article PMC7075946 (Frontiers in Immunology, 2020).
“Also recorded” adds a separate entry of the source.

Experiments:
[1] = test system: A/Victoria/210/2009 (H3N2); assay: ELISA of influenza-specific serum antibody titers in mice given adjuvanted A/Vic vaccine
human PBMCs = assay: Human PBMC secreted cytokines (Luminex); assay type: cell-based; settings: for pro-inflammatory and Th1/Th17 biasing cytokines, concentrations and frequencies: secreted and intracellular cytokine data
Description: Human blood was obtained from healthy adult donors through a University of Montana Institutional Review Board (IRB)-approved protocol. PBMCs were separated from whole blood via density gradient separation using Histopaque 1,077 (Sigma). For PBMC-based assays, cells were resuspended at the desired cell concentration in complete media (RPMI1640+10% FBS+antibiotics). Cells were treated with the indicated compound concentrations and stimulated for 6–24 h depending on the assay as indicated in the figure legends and assays outlined below.
For Luminex assays, supernatants were harvested from treated human PBMCs following 18–24 h of incubation. Supernatants were analyzed using Luminex multiplex panel for analytes IL-1β, IL-12p70, IL-23, IL-6, TNFα, IFNα, and IL-4 (R&D Systems) per the manufacturer's instructions. Multiplex analysis was performed using a Luminex 200 instrument (Luminex Corporation) and analyzed with StarStation2.3 software.
Figure 6 Lipidated imidazoquinolines elicit a Th1/Th17-inducing innate cytokine profile from human PBMCs. PBMCs from 6 healthy, adult blood donors were stimulated with indicated concentrations of TLR7/8 agonists with and without a TLR4 agonist. Secreted cytokines were measured after 24 h via Luminex assay. Supernanant concentrations of (A) IL-12p70, (B) IL-23, (C) IL-1β, and (D) IL-4 were determined. […] Note that for each cytokine measured, the y-axis scale used for the left and right plots is identical for ease of comparison.

human TLR8 = biological target: T1, human TLR8 (Homo sapiens, UniProt Q9NR97); assay: cell-based
T1 sequence (Q9NR97 27-1041): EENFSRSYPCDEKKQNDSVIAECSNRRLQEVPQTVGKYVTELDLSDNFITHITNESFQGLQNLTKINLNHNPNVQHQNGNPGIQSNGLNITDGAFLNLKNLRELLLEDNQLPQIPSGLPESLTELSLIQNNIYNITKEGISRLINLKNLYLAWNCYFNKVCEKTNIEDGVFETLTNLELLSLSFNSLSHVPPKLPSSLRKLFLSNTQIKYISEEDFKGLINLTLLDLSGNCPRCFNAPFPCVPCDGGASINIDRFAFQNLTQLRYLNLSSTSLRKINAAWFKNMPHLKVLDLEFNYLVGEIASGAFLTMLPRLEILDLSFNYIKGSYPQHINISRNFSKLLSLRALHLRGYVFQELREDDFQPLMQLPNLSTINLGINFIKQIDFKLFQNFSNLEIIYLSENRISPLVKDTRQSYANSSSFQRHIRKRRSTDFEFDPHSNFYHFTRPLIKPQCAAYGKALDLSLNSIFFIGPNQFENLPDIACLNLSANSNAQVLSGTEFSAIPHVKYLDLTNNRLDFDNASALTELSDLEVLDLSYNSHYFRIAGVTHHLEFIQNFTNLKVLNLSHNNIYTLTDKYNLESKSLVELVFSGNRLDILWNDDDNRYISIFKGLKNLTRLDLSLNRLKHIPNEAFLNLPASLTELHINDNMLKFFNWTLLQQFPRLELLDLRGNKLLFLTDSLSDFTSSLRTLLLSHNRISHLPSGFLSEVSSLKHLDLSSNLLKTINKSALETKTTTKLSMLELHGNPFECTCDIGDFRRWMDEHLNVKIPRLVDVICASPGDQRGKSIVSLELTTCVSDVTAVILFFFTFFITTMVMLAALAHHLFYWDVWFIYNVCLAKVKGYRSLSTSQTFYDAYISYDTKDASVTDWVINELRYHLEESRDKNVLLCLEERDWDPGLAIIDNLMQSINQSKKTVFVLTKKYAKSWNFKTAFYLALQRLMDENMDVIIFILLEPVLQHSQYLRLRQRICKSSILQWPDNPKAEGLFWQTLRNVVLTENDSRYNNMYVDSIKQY

[2] = test system: A/Victoria/210/2009 (H3N2); assay: Splenocyte restimulation, influenza-specific T cell responses (flow cytometry, MSD); assay type: in vivo, BALB/c mice; settings: for influenza-specific T cell response (cytokine production of restimulated splenocytes): 5 days post-secondary vaccination, A/Vic restimulation, vs A/Vic alone
human TLR7 = biological target: T2, human TLR7 (Homo sapiens, UniProt Q9NYK1); assay: cell-based
T2 sequence (Q9NYK1 27-1049): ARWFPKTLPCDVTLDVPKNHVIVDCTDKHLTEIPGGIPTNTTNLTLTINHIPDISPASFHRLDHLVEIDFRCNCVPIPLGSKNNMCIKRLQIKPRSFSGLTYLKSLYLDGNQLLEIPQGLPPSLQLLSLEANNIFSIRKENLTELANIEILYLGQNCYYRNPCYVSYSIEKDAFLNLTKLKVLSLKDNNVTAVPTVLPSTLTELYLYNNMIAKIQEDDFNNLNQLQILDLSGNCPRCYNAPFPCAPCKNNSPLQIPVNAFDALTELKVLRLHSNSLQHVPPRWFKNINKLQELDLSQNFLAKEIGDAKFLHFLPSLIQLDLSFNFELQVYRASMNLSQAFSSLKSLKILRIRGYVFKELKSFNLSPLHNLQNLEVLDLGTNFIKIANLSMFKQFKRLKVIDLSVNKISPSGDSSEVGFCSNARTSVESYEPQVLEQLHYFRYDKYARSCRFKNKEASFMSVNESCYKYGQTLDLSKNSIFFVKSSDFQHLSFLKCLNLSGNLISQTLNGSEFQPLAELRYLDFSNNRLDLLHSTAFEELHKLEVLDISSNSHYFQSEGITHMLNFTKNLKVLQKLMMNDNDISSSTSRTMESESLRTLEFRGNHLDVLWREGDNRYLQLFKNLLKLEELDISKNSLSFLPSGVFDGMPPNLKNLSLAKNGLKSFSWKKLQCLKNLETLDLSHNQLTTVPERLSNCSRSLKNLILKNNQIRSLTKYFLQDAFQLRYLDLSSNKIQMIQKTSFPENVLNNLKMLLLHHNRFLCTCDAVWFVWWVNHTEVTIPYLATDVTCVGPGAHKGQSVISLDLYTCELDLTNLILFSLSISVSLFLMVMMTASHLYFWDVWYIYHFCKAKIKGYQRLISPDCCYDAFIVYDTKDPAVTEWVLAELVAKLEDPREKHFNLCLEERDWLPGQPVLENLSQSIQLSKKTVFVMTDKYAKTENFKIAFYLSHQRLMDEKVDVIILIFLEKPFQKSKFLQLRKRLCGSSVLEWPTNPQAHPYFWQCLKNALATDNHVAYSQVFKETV

Row | SMILES | average fold change of IgG2a vs IgG1 titers over A/Vic alone ([1]; 14 days post-primary (14dp1)) | IFNα secretion (human PBMCs; 24 h) | IL-12p70 production (human PBMCs; with CRX-601 added at a 1:10 ratio, 24 h) | EC50 (human TLR8) | influenza-specific T cell response (cytokine production of restimulated splenocytes) [2] | EC50 (human TLR7) | average fold change of IgG2a vs IgG1 titers over A/Vic alone ([1]; mouse, in vivo) | IL-1β production (human PBMCs; compound alone, 24 h) | IL-12p70 production (human PBMCs; compound alone, 24 h) | IL-23 production (human PBMCs; compound alone, 24 h) | pro-inflammatory and Th1/Th17 biasing cytokines, concentrations and frequencies (human PBMCs) | IL-17 response compared to A/Vic antigen alone ([2]; challenge study, 10 μg/mouse alone, 5dp2) | frequencies of CD8 IFNγ+ cells ([2]; high dose 10 μg/mouse, with or without a TLR4 agonist, 5dp2)
1 | CCCCc1nc2c(N)nc3ccccc3c2n1CCO [UM-3001] | approximately equal increase in both IgG2a and IgG1 titers | not | boosted IL-12p70 production | 0.53 µM | did not exhibit any significantly increased cytokine production | 1.12 µM |  |  |  |  |  |  | 
2 | CCCCCCCCCCCCCCCC(=O)OC[C@H](COCCOCCOCCOP(=O)(O)OCCn1c(CCCC)nc2c(N)nc3ccccc3c21)OC(=O)CCCCCCCCCCCCCCC [UM-3003] |  | secreted; also recorded: most potent inducer of IFNα |  | 52.5 µM | primarily a Th1 influenza-specific response | 34.7 µM | IgG2a titers were increased more than IgG1 titers | low concentrations | low levels | low concentrations | low concentrations and low frequencies | no longer elicited a significantly higher IL-17 response | 
3 | CCCCCCCCCCCCCCCC(=O)OC[C@H](COCCOCCOCCOCCOCCOCCOP(=O)(O)OCCn1c(CCCC)nc2c(N)nc3ccccc3c21)OC(=O)CCCCCCCCCCCCCCC [UM-3004] | IgG2a titers were increased more than IgG1 titers | secreted |  | 24.6 µM | primarily a Th1 influenza-specific response | 60.5 µM |  |  |  |  |  |  | 
4 | CCCCCCCC/C=C\CCCCCCCC(=O)OC[C@H](COP(=O)(O)OCCc1ccc2c(c1)nc(N)c1nc(CCCC)n(CCO)c12)OC(=O)CCCCCCC/C=C\CCCCCCCC [UM-3005] |  | secreted |  | 0.27 µM | primarily a Th1 influenza-specific response | 499 µM | IgG2a titers were increased more than IgG1 titers |  |  |  | highest concentrations and frequencies |  | significantly increased
